These are literature values, as cited in patent US20030152525A1, “Stable oral compositions comprising casein phosphopeptide complexes and fluoride” (The Procter & Gamble Company, priority 2002, published 2003).

For this data set the following is noted: solutions containing 0.1% w/v peptide, various pH, calcium and phosphate concentrations, constant ionic strength; as discussed in WO 98/40406.

As for “Gln^59-Met-Glu-Ala-Glu-Ser(P)-Ile-Ser(P)-Ser(P)-Ser(P)-Glu-Glu-Ile-Val-Pro-Asn-Ser(P)-Val-Glu-Gln-Lys^79 [αs1 (59-79) [1]]”, the “calcium maximally bound per molecule of peptide” value is 24 per molecule and the “phosphate maximally bound per molecule of peptide” value is 16 per molecule.
